Measurements published in patent US20020026051A1, “Dithiepino [6,5-b]pyridines, and related compositions and methods” (priority 1999, published 2002).

biological target: T1, calcium channel (Oryctolagus cuniculus, UniProt P15381); assay: Assay for Inhibition of Nitrendipine Binding (3H-nitrendipine, heart membranes); settings: 3H-nitrendipine displacement, rabbit heart membranes; Tables 1-5
T1 construct: from tissue; host or cells: rabbit heart membrane preparation
Procedure: Female, New Zealand white rabbits (1-2 kg) are sacrificed by cervical dislocation, and the heart is immediately removed, cleaned and chopped into small pieces. The tissue is homogenized in 5× times volume of 0.05M Hepes buffer, pH 7.4. The homogenate is centrifuged at 4000 g for 10 minutes, and the supernatant is re-centrifuged at 42,000×g for 90 minutes. The resulting membrane pellet is resuspended (0.7 ml/g weight) in 0.05M Hepes, pH 7.4 and stored at […] until used. Each tube of the binding assay contains ^3H-nitrendipine (0.05-0.50 nM), buffer, membranes (0.10 ml), and test compound in a total volume of 1.0 ml. After 90 minutes at 4° C., the bound nitrendipine is separated from the unbound by filtration on Whatman GF/C filters. After rinsing, the filters are dried and counted in a liquid scintillation counter.
Non-specific binding of ^3H-nitrendipine (that amount bound in the presence of excess unlabelled nitrendipine) is subtracted from the total bound to obtain specifically bound radiolabeled nitrendipine. The amount of specifically bound nitrendipine in the presence of a test compound is compared to that amount bound in the absence of a compound. A percent displacement (or inhibition) can then be calculated.

T1 sequence (P15381 whole entry, other chains not shown): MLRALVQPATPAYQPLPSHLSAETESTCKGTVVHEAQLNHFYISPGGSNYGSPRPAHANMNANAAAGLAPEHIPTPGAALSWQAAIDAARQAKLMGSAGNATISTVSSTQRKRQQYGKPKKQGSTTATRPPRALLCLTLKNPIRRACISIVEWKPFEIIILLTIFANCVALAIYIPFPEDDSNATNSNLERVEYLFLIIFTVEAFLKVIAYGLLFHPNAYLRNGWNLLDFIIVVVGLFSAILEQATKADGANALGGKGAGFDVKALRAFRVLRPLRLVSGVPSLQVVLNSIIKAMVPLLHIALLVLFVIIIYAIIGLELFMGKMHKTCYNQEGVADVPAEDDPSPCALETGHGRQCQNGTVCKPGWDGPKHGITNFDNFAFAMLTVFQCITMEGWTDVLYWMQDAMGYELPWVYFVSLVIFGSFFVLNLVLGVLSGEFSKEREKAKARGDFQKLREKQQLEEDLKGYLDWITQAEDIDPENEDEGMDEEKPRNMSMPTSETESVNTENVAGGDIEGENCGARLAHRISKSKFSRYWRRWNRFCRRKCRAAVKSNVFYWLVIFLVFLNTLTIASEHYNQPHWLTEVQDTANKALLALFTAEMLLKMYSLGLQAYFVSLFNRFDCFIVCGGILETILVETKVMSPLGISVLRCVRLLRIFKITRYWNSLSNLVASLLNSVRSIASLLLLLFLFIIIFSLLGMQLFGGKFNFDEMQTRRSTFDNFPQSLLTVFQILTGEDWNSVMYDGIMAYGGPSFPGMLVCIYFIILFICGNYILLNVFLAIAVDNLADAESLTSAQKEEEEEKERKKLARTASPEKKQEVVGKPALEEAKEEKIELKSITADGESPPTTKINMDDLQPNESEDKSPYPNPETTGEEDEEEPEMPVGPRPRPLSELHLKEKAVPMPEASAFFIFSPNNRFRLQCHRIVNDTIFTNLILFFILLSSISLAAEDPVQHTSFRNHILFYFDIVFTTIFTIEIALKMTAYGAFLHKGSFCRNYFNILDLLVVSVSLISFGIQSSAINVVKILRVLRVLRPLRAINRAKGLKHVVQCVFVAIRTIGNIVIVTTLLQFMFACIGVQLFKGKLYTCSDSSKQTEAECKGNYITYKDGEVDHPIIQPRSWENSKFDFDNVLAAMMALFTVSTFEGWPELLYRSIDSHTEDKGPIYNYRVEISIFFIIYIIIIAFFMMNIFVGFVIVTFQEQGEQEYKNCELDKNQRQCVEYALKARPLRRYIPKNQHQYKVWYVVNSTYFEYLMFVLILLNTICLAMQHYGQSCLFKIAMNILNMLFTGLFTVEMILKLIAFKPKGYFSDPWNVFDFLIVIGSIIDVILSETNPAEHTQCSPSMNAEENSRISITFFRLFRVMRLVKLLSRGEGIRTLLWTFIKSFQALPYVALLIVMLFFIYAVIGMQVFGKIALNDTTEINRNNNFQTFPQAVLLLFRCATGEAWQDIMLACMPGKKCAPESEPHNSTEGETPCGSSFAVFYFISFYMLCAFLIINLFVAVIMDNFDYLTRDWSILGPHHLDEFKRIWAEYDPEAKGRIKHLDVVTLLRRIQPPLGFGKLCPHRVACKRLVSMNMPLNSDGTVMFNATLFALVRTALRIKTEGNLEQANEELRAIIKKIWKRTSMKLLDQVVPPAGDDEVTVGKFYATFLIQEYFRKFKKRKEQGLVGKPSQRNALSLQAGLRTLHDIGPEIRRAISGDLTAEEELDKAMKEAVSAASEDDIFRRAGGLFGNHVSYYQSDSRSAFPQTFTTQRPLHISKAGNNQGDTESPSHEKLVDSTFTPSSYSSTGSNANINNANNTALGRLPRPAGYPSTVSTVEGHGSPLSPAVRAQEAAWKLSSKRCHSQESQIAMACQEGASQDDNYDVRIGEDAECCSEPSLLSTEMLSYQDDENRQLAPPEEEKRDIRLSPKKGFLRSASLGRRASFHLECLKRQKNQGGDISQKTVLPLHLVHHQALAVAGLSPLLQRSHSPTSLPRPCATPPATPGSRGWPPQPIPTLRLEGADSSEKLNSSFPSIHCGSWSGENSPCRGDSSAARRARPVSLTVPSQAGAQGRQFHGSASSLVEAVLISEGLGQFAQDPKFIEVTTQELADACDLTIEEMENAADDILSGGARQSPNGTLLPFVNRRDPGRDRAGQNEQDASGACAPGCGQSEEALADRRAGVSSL
T1 sequence (P13806 27-960 partner limits assumed, other chains not shown): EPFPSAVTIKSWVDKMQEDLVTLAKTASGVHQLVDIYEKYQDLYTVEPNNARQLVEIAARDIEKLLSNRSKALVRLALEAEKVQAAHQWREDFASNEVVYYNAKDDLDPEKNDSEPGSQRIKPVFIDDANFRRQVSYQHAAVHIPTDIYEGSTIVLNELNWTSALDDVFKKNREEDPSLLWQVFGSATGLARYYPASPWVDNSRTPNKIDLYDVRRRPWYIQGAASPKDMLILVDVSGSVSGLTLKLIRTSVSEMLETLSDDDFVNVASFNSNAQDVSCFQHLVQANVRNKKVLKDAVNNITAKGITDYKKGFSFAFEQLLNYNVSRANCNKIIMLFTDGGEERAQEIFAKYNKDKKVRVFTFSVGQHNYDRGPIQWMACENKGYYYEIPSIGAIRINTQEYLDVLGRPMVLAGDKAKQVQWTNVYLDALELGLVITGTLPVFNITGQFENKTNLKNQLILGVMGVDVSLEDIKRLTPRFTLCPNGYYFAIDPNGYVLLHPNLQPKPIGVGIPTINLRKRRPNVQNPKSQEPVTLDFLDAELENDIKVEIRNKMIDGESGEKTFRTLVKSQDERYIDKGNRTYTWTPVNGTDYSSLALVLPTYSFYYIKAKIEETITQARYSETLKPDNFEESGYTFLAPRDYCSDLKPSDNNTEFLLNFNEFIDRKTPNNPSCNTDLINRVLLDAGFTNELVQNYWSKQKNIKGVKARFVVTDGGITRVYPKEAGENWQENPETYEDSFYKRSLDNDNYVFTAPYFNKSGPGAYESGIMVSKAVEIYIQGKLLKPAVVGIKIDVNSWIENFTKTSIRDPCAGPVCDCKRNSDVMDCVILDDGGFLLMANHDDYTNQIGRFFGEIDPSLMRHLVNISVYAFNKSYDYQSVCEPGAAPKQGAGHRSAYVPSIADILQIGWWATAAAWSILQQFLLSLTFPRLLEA
T1 sequence (P13806 961-1106 partner limits assumed, other chains not shown): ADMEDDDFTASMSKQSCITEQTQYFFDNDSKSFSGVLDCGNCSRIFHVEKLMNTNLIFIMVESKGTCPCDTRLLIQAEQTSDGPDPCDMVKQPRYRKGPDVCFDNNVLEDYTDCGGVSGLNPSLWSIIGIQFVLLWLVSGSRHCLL

Compound	IC50 [nM]
CC1=C(C(=O)OCCN(C)Cc2ccccc2)[C@@H](c2c(F)cccc2Cl)C2=C(CS(=O)(=O)CCS2(=O)=O)N1 (single isomer, unassigned) [Compound 2, 5H-1,4-Dithiepino[6,5-b]pyridine-8-carboxylic acid, 9-(2-chloro-6-fluorophenyl)-2,3,6,9-tetrahydro-7-methyl-2-[methyl(phenylmethyl)amino]ethyl ester 1,1,4,4-tetraoxide]	43
CC1=C(C(=O)OCCN(C)Cc2ccccc2)C(c2c(F)c(F)c(F)c(F)c2F)C2=C(CS(=O)(=O)CCCS2(=O)=O)N1 (centres unmarked) [Compound 27, 2H,6H-1,5-Dithiocino[3,2-b]pyridine-9-carboxylic acid, 3,4,7,10-tetrahydro-8-methyl-10-(pentafluorophenyl)-2-[methyl(phenylmethyl)amino]ethyl ester 1,1,5,5-tetraoxide]	49
C=C1CS(=O)(=O)C2=C(CS1(=O)=O)NC(C)=C(C(=O)OC)C2c1cccc(C(F)(F)F)c1F (centres unmarked) [Compound 20, 5H-1,4-Dithiepino[6,5-b]pyridine-8-carboxylic acid, 9-[2-fluoro-3-(trifluoromethyl)phenyl]-2,3,6,9-tetrahydro-7-methyl-3-methylene-methyl ester 1,1,4,4-tetraoxide]	21
CC1=C(C(=O)OCCN(C)Cc2ccccc2)C(c2c(F)cccc2C(F)(F)F)C2=C(CS(=O)(=O)CCS2(=O)=O)N1 (centres unmarked) [Compound 5, 5H-1,4-Dithiepino[6,5-b]pyridine-8-carboxylic acid, 9-[2-fluoro-6-(trifluoromethyl)phenyl]-2,3,6,9-tetrahydro-7-methyl-2-[methyl(phenylmethyl)amino]ethyl ester 1,1,4,4-tetraoxide]	12
CC1=C(C(=O)OCCN(C)Cc2ccccc2)C(c2cccc(C(F)(F)F)c2F)C2=C(CS(=O)(=O)C(CO)CS2(=O)=O)N1 (centres unmarked) [Compound 23, 5H-1,4-Dithiepino[6,5-b]pyridine-8-carboxylic acid, 9-[2-fluoro-3-(trifluoromethyl)phenyl]-2,3,6,9-tetrahydro-3-(hydroxymethyl)-7-methyl-2-[methyl(phenylmethyl)amino]ethyl ester 1,1,4,4-tetraoxide]	215
COC(=O)C1=C(C)NC2=C(C1c1c(F)cccc1Cl)S(=O)(=O)CCS(=O)(=O)C2 (centres unmarked) [Compound 11, 5H-1,4-Dithiepino[6,5-b]pyridine-8-carboxylic acid, 9-(2-chloro-6-fluorophenyl)-2,3,6,9-tetrahydro-7-methyl-methyl ester 1,1,4,4-tetraoxide]	91
CC1=C(C(=O)OCCN(C)Cc2ccccc2)C(c2cccc(C(F)(F)F)c2F)C2=C(CS(=O)(=O)CS2(=O)=O)N1 (centres unmarked) [Compound 31, 4H-1,3-Dithiino[5,4-b]pyridine-7-carboxylic acid, 8-[2-fluoro-3-(trifluoromethyl)phenyl]-5,8-dihydro-6-methyl-2-[methyl(phenylmethyl)amino]ethyl ester 1,1,3,3-tetraoxide]	28
CC1=C(C(=O)OCCN(C)Cc2ccccc2)C(c2cccc([N+](=O)[O-])c2)C2=C(CS(=O)(=O)C(CO)CS2(=O)=O)N1 (centres unmarked) [Compound 24, 5H-1,4-Dithiepino[6,5-b]pyridine-8-carboxylic acid, 2,3,6,9-tetrahydro-3-(hydroxymethyl)-7-methyl-9-(3-nitrophenyl)-2-[methyl(phenylmethyl)amino]ethyl ester 1,1,4,4-tetraoxide]	337
COC(=O)C1=C(C)NC2=C(C1c1ccccc1F)S(=O)(=O)CCS(=O)(=O)C2 (centres unmarked) [Compound 16, 5H-1,4-Dithiepino[6,5-b]pyridine-8-carboxylic acid, 9-(2-fluorophenyl)-2,3,6,9-tetrahydro-7-methyl-methyl ester 1,1,4,4-tetraoxide]	265
COC(=O)C1=C(C)NC2=C(C1c1cccc(C(F)(F)F)c1F)S(=O)(=O)CC(CO)S(=O)(=O)C2 (centres unmarked) [Compound 22, 5H-1,4-Dithiepino[6,5-b]pyridine-8-carboxylic acid, 9-[2-fluoro-3-(trifluoromethyl)phenyl]-2,3,6,9-tetrahydro-3-(hydroxymethyl)-7-methyl-methyl ester 1,1,4,4-tetraoxide]	193
COC(=O)C1=C(C)NC2=C(C1c1ccccc1Cl)S(=O)(=O)CCS(=O)(=O)C2 (centres unmarked) [Compound 15, 5H-1,4-Dithiepino[6,5-b]pyridine-8-carboxylic acid, 9-(2-chlorophenyl)-2,3,6,9-tetrahydro-7-methyl-methyl ester 1,1,4,4-tetraoxide]	61
CC1=C(C(=O)OCCN(C)Cc2ccccc2)C(c2c(F)cccc2Cl)C2=C(CS(=O)(=O)CCS2(=O)=O)N1 (centres unmarked) [Compound 1, 5H-1,4-Dithiepino[6,5-b]pyridine-8-carboxylic acid, 9-(2-chloro-6-fluorophenyl)-2,3,6,9-tetrahydro-7-methyl-2-[methyl(phenylmethyl)amino]ethyl ester 1,1,4,4-tetraoxide]	74
CC1=C(C(=O)OCCN(C)Cc2ccccc2)[C@H](c2c(F)cccc2Cl)C2=C(CS(=O)(=O)CCS2(=O)=O)N1 (single isomer, unassigned) [Compound 3, 5H-1,4-Dithiepino[6,5-b]pyridine-8-carboxylic acid, 9-(2-chloro-6-fluorophenyl)-2,3,6,9-tetrahydro-7-methyl-2-[methyl(phenylmethyl)amino]ethyl ester 1,1,4,4-tetraoxide]	160000
CC1=C(C(=O)OCCN(C)Cc2ccccc2)C(c2c(O)cccc2Cl)C2=C(CS(=O)(=O)CCS2(=O)=O)N1 (centres unmarked) [Compound 4, 5H-1,4-Dithiepino[6,5-b]pyridine-8-carboxylic acid, 9-(2-chloro-6-hydroxyphenyl)-2,3,6,9-tetrahydro-7-methyl-2-[methyl(phenylmethyl)amino]ethyl ester 1,1,4,4-tetraoxide]	390
COC(=O)C1=C(C)NC2=C(C1c1c(F)cccc1F)S(=O)(=O)CCS(=O)(=O)C2 (centres unmarked) [Compound 14, 5H-1,4-Dithiepino[6,5-b]pyridine-8-carboxylic acid, 9-(2,6-difluorophenyl)-2,3,6,9-tetrahydro-7-methyl-methyl ester 1,1,4,4-tetraoxide]	259
CC1=C(C(=O)OCCN(C)Cc2ccccc2)C(c2ccccc2Cl)C2=C(CS(=O)(=O)CS2(=O)=O)N1 (centres unmarked) [Compound 32, 4H-1,3-Dithiino[5,4-b]pyridine-7-carboxylic acid, 8-(2-chlorophenyl)-5,8-dihydro-6-methyl-2-[methyl(phenylmethyl)amino]ethyl ester 1,1,3,3-tetraoxide]	39

same assay, conditions: 3H-nitrendipine displacement, rabbit heart membranes; Tables 6-7

Compound	IC50 [nM]
CC1=C(C(=O)OCCOC(=O)C2CCCCC2)C(c2c(F)cccc2Cl)C2=C(CS(=O)(=O)CCS2(=O)=O)N1 (centres unmarked) [Compound 55]	100
CC1=C(C(=O)OCCOC(=O)C(N)C(C)C)C(c2c(F)cccc2Cl)C2=C(CS(=O)(=O)CCS2(=O)=O)N1 (centres unmarked) [Compound 92]	5800
CCN(CC)C(=O)COC(=O)C1=C(C)NC2=C(C1c1c(F)cccc1Cl)S(=O)(=O)CCS(=O)(=O)C2 (centres unmarked) [Compound 90]	4240
CC1=C(C(=O)OCCOC(=O)c2ccc(OC(C)C)cc2)C(c2c(F)cccc2Cl)C2=C(CS(=O)(=O)CCCS2(=O)=O)N1 (centres unmarked) [Compound 99, 2H,6H-[1,5]dithiocino[3,2-b]pyridine-9-carboxylic acid, 10-(2-chloro-6-fluorophenyl)-3,4,7,10-tetrahydro-8-methyl-, 2-[[4-(1-methylethoxy)benzoyl]oxy]ethyl ester, 1,1,5,5-tetraoxide]	40
CC1=C(C(=O)OCCOC(=O)C(C)C)C(c2cccc(Cl)c2Cl)C2=C(CS(=O)(=O)CCS2(=O)=O)N1 (centres unmarked) [Compound 34, 5H-[1,4]dithiepino[6,5-b]pyridine-8-carboxylic acid, 9-(2,3-dichlorophenyl)-2,3,6,9-tetrahydro-7-methyl-, 2-(2-methyl-1-oxopropoxy)ethyl ester, 1,1,4,4-tetraoxide]	15
CC1=C(C(=O)OCCOC(=O)c2ccc3ccccc3c2)C(c2c(F)cccc2Cl)C2=C(CS(=O)(=O)CCS2(=O)=O)N1 (centres unmarked) [Compound 46]	50
CC1=C(C(=O)OCCOC(=O)c2ccc(C#N)cc2)C(c2c(F)cccc2Cl)C2=C(CS(=O)(=O)CCS2(=O)=O)N1 (centres unmarked) [Compound 48]	55
CC(=O)OCCOC(=O)C1=C(C)NC2=C(C1c1c(F)cccc1Cl)S(=O)(=O)CCS(=O)(=O)C2 (centres unmarked) [Compound 80]	898
CC1=C(C(=O)OCCOC(=O)c2ccncc2)C(c2c(F)cccc2Cl)C2=C(CS(=O)(=O)CCS2(=O)=O)N1 (centres unmarked) [Compound 78]	760
CC1=C(C(=O)OCCNC(=O)c2ccccc2)C(c2c(F)cccc2Cl)C2=C(CS(=O)(=O)CCS2(=O)=O)N1 (centres unmarked) [Compound 87]	2260

system: trachealis muscle tissue; assay: Test for Inhibition of Calcium-Dependent Smooth Muscle Contraction (trachea); type: cell-based; settings: Canis lupus familiaris; dog tracheal rings, 50 mM KCl contraction
Procedure: The trachea and the aorta from dogs sacrificed by excess KCl injection are stored overnight at 4° C. in oxygenated Krebs-Henseleit buffer. Tracheal rings, one cartilage segment wide (5-10 mm), are cut starting from the bronchial end. Rings of aorta tissue of the same width are also prepared. After cutting the cartilage, the trachealis muscle tissue and the aorta tissue are suspended in oxygenated Krebs-Henseleit buffer at 37° C. in a 25 ml tissue bath. After a 60-minute equilibration period, the tissues are challenged with 10 μM carbachol. After 5 minutes, the tissues are rinsed and allowed to rest 50 minutes. The tissues are then challenged with 50 mM KCl and, after 30 minutes, the contractions are quantitated. The tissues are then rinsed and re-equilibrated for 50 minutes. Test compounds are then added for 10 minutes, and the tissue is rechallenged with 50 mM KCl. After 30 minutes, the contraction is recorded. A percent inhibition of smooth muscle contraction can then be calculated.

Compound	IC50 [nM]
CC1=C(C(=O)OCCN(C)Cc2ccccc2)[C@@H](c2c(F)cccc2Cl)C2=C(CS(=O)(=O)CCS2(=O)=O)N1 (single isomer, unassigned) [Compound 2, 5H-1,4-Dithiepino[6,5-b]pyridine-8-carboxylic acid, 9-(2-chloro-6-fluorophenyl)-2,3,6,9-tetrahydro-7-methyl-2-[methyl(phenylmethyl)amino]ethyl ester 1,1,4,4-tetraoxide]	660
CC1=C(C(=O)OCCN(C)Cc2ccccc2)C(c2c(F)c(F)c(F)c(F)c2F)C2=C(CS(=O)(=O)CCCS2(=O)=O)N1 (centres unmarked) [Compound 27, 2H,6H-1,5-Dithiocino[3,2-b]pyridine-9-carboxylic acid, 3,4,7,10-tetrahydro-8-methyl-10-(pentafluorophenyl)-2-[methyl(phenylmethyl)amino]ethyl ester 1,1,5,5-tetraoxide]	6200
CC1=C(C(=O)OCCN(C)Cc2ccccc2)C(c2c(F)cccc2Cl)C2=C(CS(=O)(=O)CCS2(=O)=O)N1 (centres unmarked) [Compound 1, 5H-1,4-Dithiepino[6,5-b]pyridine-8-carboxylic acid, 9-(2-chloro-6-fluorophenyl)-2,3,6,9-tetrahydro-7-methyl-2-[methyl(phenylmethyl)amino]ethyl ester 1,1,4,4-tetraoxide]	650
